Reference: patent publication US20230234931A1, “NON-STEROIDAL ANTI-INFLAMMATORY COMPOUNDS” (University of Houston System, priority 2022, published 2023)

Assays:
COX-2-10aa-mPGES-1 = target: T1, COX-2-10aa-mPGES-1 (Homo sapiens, UniProt O14684+P35354); assay: Inhibition of PGE2 production in HEK293 cells expressing Enzymelink COX-2-10aa-mPGES-1; assay type: cell-based; settings: HEK-293 cells, 1, 3 and 10 μM, arachidonic acid 0.5 μM, PGE2 by ELISA, compared with NS-398 (FIG. 9)
T1 construct: COX-2 (fusion partner); gene PTGS2, human entry P35354 by own knowledge; expressed in transfected cells; host or cells: HEK293
T1 sequence (P35354+O14684 with tags, fused parts or gaps): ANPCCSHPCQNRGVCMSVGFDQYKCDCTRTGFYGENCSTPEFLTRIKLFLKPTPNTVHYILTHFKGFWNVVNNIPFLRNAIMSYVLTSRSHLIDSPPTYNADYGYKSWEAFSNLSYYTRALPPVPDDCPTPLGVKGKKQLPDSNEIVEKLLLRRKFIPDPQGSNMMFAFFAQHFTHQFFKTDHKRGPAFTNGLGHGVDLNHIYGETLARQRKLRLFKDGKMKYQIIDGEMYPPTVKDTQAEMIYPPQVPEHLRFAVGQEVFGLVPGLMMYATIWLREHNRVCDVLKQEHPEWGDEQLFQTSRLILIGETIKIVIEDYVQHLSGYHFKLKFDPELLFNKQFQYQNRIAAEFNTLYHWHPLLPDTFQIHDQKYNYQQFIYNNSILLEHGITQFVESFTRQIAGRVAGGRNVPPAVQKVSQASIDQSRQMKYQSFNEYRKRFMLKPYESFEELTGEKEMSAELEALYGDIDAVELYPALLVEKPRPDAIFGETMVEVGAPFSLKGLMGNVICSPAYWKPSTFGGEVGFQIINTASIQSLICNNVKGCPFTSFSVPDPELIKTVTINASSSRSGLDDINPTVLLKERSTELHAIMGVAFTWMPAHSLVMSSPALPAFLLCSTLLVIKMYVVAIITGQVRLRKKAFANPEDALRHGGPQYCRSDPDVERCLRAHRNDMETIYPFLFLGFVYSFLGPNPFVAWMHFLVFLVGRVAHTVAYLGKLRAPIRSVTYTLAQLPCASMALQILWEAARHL
Procedure: FIG. 9. Dose response curves for the effects of the synthesized derivatives on mPGES-1-synthesized inflammatory PGE2, compared with COX-2 inhibitor. HEK-293 cells expressing inflammatory PGE-producing Enzymelink, COX-2-10aa-mPGES-1 described previously (11) were treated with increasing concentrations (1 μM, 3 μM, and 10 μM), of the derivatives. Arachidonic acid (0.5 μM) was added to initiate the biosynthesis of PGE2 through COX-2 and mPGES-1 catalysis (11). The produced PGE2 was detected by ELISA (11). COX-2 inhibitor, NS-398 was used as positive control. An unrelated chemical compound (#6) was used as a negative control.
COX linked PG synthase cDNAs of the hybrid enzyme COX-2 C-terminus was linked to the PGES N-terminus with 10 amino acids (COX-2-10aa-PGES) was constructed by a polymerase chain reaction (PCR) cloning approach. The resultant cDNA was sub-cloned into pcDNATM3.1 vectors containing a cytomegalovirus immediate-early promoter (11, 16).
The recombinant enzyme was expressed in HEK293 cells. […] The enzyme expressions were determined by a Western blot analysis. […]
The effect of compounds that inhibited PGE2 production were determined by HPLC. […]
The inhibitory effect on PGE2 production by mPGES-1 was determined by using previously developed HEK293 cells expressing our engineered Enzymelink, COX-2-10aa-mPGES-1.

PC-3 cells = assay: Cancer cell PC-3 migration assay (gap size); assay type: cell-based; settings: after 39 hours of culture, compared with NS-398
Procedure: FIG. 10A-C. Anti-inflammatory and anti-cancer activities in cell cultural conditions. PC-3 migration assay treated with the lead compound #10. FIG. 10A The representative images of the PC-3 migration at 0 hour (left) and 39 hours (right) with DMSO, NS-398, and #10. FIG. 10B The time-course gap size of the PC-3 migration. The gap size was obtained using NIS-element software (NIKON). n=6. FIG. 10C Quantitative and significant analyses.
One day before the experiment, about 8.4×10^6 of PC-3 cells were cultured in 6-well plates with 2 mL of growth medium. A marker line was drawn on the outside plates to identify viewing spots. The medium was pre-warmed, and each treatment (DMSO, NS-398, and #10) was mixed with the medium. The cells were washed with PBS and replaced with 1.5 mL of medium containing a treatment, and observed at 0, 15, 24, and 39-hour points. NIS-element AR 3.0 (Nikon Instruments Inc.) software was used to take images at different time points with 10× magnification, and to measure gap sizes.
Inflammation is a factor that stimulates cell migration and is associated with a wide range of ailments including cancer (29). Inflammatory PGE2 produced by mPGES-1 has been reported to be directly associated with cancer cell migration and development (30-33). […] After 39 hours of culture, the gaps were measured (FIG. 10A) and quantified (FIG. 10B and FIG. 10C). […]

Nc1ccc2oc(-c3ccc(C(F)(F)F)cc3)nc2c1 [3-F, 2-[4-(trifluoromethyl)phenyl]-1,3-benzoxazol-5-amine]
inhibition of inflammatory PGE2 production (COX-2-10aa-mPGES-1): able to inhibit inflammatory PGE2 production with very similar dose-response concentrations of the COX-2 inhibitor | inhibition of cancer cell migration within the gaps (PC-3 cells): very effective inhibition of cancer cell migration

2-[4-(trimethyl) phenyl]-1,3-benzoxazol-5-amine [3-Methyl]
inhibition of inflammatory PGE2 production (COX-2-10aa-mPGES-1): able to inhibit inflammatory PGE2 production with very similar dose-response concentrations of the COX-2 inhibitor | inhibition of cancer cell migration within the gaps (PC-3 cells): very effective inhibition of cancer cell migration
